According to ChEMBL document CHEMBL4507292 (2021):

Tests used:
[1] = target: Beta-3 adrenergic receptor (Homo sapiens, UniProt P13945); conditions: Compound concentration 10.0 uM
[2] = target: Interleukin-1 receptor-associated kinase 1 (Homo sapiens) (UniProt P51617); conditions: Compound concentration 1000.0 nM
[3] = test system: Receptor-type tyrosine-protein kinase FLT3 (Homo sapiens), P36888 [UNDEFINED MUTATION]; conditions: Compound concentration 1000.0 nM
[4] = target: Dual specificity mitogen-activated protein kinase kinase 4 (Homo sapiens) (UniProt P45985); conditions: Compound concentration 1000.0 nM
[5] = target: Serine/threonine-protein kinase PAK 1 (Homo sapiens) (UniProt Q13153); conditions: Compound concentration 1000.0 nM
Sequence of Serine/threonine-protein kinase PAK 1 (Homo sapiens) (Q13153 whole entry): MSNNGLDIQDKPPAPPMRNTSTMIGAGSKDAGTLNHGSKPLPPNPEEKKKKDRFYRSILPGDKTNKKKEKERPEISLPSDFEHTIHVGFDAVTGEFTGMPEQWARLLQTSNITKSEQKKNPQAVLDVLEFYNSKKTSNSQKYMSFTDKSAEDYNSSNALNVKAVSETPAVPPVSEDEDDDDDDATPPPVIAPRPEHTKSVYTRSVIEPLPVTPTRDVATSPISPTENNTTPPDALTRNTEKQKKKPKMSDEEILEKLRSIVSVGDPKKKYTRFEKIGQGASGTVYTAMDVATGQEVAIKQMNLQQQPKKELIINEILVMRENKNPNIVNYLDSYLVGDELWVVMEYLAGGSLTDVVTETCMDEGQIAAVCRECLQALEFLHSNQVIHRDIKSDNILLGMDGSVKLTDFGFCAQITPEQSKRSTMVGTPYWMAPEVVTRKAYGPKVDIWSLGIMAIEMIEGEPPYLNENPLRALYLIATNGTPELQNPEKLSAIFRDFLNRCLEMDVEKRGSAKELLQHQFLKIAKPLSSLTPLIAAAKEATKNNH

[6] = target: Muscarinic acetylcholine receptor M4 (Homo sapiens) (UniProt P08173); conditions: Compound concentration 10.0 uM
Sequence of Muscarinic acetylcholine receptor M4 (Homo sapiens) (P08173 whole entry): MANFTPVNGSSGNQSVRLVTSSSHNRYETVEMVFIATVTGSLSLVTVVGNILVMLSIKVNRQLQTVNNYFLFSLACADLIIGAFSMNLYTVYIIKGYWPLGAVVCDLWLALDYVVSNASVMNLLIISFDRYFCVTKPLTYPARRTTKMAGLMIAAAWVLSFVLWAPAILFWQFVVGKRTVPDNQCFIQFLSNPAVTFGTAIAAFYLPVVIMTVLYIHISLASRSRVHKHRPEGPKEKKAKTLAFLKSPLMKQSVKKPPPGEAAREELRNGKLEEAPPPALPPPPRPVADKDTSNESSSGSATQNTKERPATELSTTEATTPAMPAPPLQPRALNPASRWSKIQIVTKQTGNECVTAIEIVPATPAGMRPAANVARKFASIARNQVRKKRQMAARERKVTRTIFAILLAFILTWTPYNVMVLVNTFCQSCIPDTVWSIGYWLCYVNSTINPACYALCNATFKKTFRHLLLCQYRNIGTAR

[7] = target: NUAK family SNF1-like kinase 1 (Homo sapiens) (UniProt O60285); conditions: Compound concentration 1000.0 nM
[8] = target: Fibroblast growth factor receptor 3 (Homo sapiens) (UniProt P22607); conditions: Compound concentration 1000.0 nM
[9] = target: Transient receptor potential cation channel subfamily M member 6 (Homo sapiens) (UniProt Q9BX84); conditions: Compound concentration 1000.0 nM
[10] = target: Serine/threonine-protein kinase Nek3 (Homo sapiens) (UniProt P51956); conditions: Compound concentration 1000.0 nM
[11] = target: Calcium/calmodulin-dependent protein kinase type 1G (Homo sapiens) (UniProt Q96NX5); conditions: Compound concentration 1000.0 nM
[12] = target: Serine/threonine-protein kinase MRCK alpha (Homo sapiens) (UniProt Q5VT25); conditions: Compound concentration 1000.0 nM
Sequence of Serine/threonine-protein kinase MRCK alpha (Homo sapiens) (Q5VT25 whole entry): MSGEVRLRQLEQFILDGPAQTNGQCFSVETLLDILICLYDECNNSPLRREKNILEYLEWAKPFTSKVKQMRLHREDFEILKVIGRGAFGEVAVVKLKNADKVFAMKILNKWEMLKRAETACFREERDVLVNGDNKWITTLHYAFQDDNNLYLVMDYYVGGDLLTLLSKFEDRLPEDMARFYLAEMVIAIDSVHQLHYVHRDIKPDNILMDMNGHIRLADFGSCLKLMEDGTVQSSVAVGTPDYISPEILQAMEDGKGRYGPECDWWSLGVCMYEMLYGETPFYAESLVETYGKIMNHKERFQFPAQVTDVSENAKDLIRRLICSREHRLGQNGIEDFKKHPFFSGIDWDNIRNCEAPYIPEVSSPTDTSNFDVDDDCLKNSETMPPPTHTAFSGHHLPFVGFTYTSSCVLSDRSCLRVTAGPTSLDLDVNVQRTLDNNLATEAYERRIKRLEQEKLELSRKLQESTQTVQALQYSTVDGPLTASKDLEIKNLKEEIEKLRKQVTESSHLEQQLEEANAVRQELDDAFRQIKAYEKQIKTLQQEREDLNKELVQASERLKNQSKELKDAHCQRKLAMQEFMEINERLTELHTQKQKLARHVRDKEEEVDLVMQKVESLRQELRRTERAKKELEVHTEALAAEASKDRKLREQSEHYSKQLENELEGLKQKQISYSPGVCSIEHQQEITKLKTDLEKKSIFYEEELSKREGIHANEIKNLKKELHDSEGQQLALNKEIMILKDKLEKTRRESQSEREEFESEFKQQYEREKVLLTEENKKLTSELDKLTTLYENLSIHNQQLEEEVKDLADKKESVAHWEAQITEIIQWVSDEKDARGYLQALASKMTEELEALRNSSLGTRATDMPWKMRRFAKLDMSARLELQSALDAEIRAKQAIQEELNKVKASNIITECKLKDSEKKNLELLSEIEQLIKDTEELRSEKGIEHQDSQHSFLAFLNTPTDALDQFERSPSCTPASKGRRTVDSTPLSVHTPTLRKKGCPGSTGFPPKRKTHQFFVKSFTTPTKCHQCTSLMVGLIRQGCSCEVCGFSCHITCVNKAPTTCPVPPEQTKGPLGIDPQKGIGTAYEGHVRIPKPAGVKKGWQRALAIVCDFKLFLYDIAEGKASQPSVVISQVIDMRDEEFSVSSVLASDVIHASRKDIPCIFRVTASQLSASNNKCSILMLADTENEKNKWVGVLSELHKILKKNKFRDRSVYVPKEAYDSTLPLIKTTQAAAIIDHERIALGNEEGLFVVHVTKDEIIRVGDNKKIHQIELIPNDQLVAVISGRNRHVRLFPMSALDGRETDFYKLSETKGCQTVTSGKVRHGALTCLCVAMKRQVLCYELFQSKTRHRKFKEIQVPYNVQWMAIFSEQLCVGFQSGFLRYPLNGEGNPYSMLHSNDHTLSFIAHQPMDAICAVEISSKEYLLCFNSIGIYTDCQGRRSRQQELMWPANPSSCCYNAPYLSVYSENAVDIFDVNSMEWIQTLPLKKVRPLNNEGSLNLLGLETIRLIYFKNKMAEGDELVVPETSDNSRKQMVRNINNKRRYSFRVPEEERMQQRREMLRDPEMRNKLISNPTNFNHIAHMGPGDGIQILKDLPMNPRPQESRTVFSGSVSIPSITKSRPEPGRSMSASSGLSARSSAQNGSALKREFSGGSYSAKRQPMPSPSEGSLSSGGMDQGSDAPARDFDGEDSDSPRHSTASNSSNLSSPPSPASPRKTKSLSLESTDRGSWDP

[13] = target: Serine/threonine-protein kinase Nek5 (Homo sapiens) (UniProt Q6P3R8); conditions: Compound concentration 1000.0 nM
Sequence of Serine/threonine-protein kinase Nek5 (Homo sapiens) (Q6P3R8 whole entry): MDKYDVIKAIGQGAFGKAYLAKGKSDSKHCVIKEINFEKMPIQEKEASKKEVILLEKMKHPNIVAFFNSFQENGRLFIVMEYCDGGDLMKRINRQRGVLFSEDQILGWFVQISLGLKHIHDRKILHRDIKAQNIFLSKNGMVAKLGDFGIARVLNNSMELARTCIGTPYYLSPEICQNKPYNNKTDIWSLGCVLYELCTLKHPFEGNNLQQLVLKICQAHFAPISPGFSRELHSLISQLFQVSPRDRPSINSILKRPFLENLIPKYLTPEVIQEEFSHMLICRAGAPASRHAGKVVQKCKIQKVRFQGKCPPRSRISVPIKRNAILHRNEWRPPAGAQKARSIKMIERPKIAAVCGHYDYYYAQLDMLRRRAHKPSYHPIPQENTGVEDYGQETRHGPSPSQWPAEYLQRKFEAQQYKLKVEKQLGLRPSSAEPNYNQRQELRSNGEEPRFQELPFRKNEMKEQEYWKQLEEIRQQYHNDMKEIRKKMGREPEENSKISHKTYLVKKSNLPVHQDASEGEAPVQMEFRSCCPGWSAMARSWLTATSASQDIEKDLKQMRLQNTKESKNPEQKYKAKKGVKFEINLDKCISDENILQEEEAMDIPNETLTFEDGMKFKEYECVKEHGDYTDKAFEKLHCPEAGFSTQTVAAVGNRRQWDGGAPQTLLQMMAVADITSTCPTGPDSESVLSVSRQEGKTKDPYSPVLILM

[14] = target: Serine/threonine-protein kinase 35 (Homo sapiens) (UniProt Q8TDR2); conditions: Compound concentration 1000.0 nM
Sequence of Serine/threonine-protein kinase 35 (Homo sapiens) (Q8TDR2 whole entry): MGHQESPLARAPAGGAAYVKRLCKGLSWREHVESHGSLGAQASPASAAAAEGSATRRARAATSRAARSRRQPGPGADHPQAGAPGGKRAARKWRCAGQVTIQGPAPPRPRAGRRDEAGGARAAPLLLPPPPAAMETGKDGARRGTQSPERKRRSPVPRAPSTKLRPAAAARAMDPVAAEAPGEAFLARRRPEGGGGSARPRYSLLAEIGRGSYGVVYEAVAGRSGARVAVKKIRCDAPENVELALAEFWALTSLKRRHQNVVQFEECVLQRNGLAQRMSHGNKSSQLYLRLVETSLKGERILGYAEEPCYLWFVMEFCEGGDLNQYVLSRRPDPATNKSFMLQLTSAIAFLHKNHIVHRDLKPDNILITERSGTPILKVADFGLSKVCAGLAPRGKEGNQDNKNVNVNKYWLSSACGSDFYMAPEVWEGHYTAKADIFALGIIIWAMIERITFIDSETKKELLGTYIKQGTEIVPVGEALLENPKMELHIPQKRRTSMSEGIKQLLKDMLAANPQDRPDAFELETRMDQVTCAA

[15] = target: Calcium/calmodulin-dependent protein kinase type 1D (Homo sapiens) (UniProt Q8IU85); conditions: Compound concentration 1000.0 nM
[16] = target: Macrophage colony-stimulating factor 1 receptor (Homo sapiens) (UniProt P07333); conditions: Compound concentration 1000.0 nM
[17] = target: Activin receptor type-1-like (Homo sapiens) (UniProt P37023); conditions: Compound concentration 1000.0 nM
[18] = target: Testis-specific serine/threonine-protein kinase 3 (Homo sapiens) (UniProt Q96PN8); conditions: Compound concentration 1000.0 nM
[19] = target: Mu-type opioid receptor (Homo sapiens) (UniProt P35372); conditions: Compound concentration 10.0 uM
[20] = target: Serine/threonine-protein kinase N1 (Homo sapiens) (UniProt Q16512); conditions: Compound concentration 1000.0 nM
[21] = target: Serine/threonine-protein kinase PLK3 (Homo sapiens) (UniProt Q9H4B4); conditions: Compound concentration 1000.0 nM
[22] = target: Bone morphogenetic protein receptor type-1B (Homo sapiens) (UniProt O00238); conditions: Compound concentration 1000.0 nM
[23] = target: BDNF/NT-3 growth factors receptor (Homo sapiens) (UniProt Q16620); conditions: Compound concentration 1000.0 nM
[24] = test system: Tyrosine-protein kinase ABL1 (Homo sapiens), P00519 [F317L]; conditions: Compound concentration 1000.0 nM
[25] = target: Serine/threonine-protein kinase 25 (Homo sapiens) (UniProt O00506); conditions: Compound concentration 1000.0 nM
[26] = target: Tyrosine-protein kinase BTK (Homo sapiens) (UniProt Q06187); conditions: Compound concentration 1000.0 nM
Sequence of Tyrosine-protein kinase BTK (Homo sapiens) (Q06187 whole entry): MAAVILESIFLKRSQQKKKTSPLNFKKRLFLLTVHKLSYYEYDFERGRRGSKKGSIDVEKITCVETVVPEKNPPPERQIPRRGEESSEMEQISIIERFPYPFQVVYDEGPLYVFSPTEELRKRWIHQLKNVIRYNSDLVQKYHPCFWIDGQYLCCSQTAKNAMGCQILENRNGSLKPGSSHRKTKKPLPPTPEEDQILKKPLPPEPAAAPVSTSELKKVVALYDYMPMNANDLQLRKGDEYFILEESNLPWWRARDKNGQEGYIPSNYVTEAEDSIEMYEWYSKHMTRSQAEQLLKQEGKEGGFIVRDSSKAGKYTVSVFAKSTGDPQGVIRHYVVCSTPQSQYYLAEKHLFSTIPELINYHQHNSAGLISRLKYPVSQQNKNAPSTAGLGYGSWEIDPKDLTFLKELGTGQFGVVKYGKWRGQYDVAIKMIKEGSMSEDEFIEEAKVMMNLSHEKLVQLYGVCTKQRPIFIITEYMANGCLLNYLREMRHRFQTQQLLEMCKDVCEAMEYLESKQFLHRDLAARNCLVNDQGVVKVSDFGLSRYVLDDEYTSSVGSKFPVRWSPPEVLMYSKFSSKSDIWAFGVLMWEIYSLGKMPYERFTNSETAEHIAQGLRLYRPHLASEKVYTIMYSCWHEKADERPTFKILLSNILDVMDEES

[27] = target: MAP kinase-activated protein kinase 2 (Homo sapiens) (UniProt P49137); conditions: Compound concentration 1000.0 nM
Sequence of MAP kinase-activated protein kinase 2 (Homo sapiens) (P49137 whole entry, looked up): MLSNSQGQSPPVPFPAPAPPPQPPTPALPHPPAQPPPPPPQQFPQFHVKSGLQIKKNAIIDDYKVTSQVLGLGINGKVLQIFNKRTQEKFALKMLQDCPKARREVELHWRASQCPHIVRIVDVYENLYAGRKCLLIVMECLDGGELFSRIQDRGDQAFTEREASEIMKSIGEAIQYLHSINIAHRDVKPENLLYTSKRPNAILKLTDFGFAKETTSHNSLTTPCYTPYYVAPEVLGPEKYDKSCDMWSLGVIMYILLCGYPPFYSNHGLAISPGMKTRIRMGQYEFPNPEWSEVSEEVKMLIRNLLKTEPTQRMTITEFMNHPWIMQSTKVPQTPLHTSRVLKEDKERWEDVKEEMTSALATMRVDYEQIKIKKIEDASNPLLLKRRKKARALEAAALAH

[28] = target: Mitogen-activated protein kinase kinase kinase 15 (Homo sapiens) (UniProt Q6ZN16); conditions: Compound concentration 1000.0 nM
[29] = target: Tyrosine-protein kinase CSK (Homo sapiens) (UniProt P41240); conditions: Compound concentration 1000.0 nM
[30] = target: Receptor-interacting serine/threonine-protein kinase 4 (Homo sapiens) (UniProt P57078); conditions: Compound concentration 1000.0 nM
[31] = target: Tyrosine-protein kinase Fes/Fps (Homo sapiens) (UniProt P07332); conditions: Compound concentration 1000.0 nM
[32] = target: Mitogen-activated protein kinase kinase kinase kinase 1 (Homo sapiens) (UniProt Q92918); conditions: Compound concentration 1000.0 nM
[33] = target: Phosphorylase b kinase regulatory subunit alpha, liver isoform (Homo sapiens) (UniProt P46019); conditions: Compound concentration 1000.0 nM
[34] = target: Serine/threonine-protein kinase 16 (Homo sapiens) (UniProt O75716); conditions: Compound concentration 1000.0 nM
[35] = target: Cyclin-dependent kinase 3 (Homo sapiens) (UniProt Q00526); conditions: Compound concentration 1000.0 nM
[36] = test system: Epidermal growth factor receptor (Homo sapiens), P00533 [L858R]; conditions: Compound concentration 1000.0 nM
[37] = target: Serine/threonine-protein kinase pim-3 (Homo sapiens) (UniProt Q86V86); conditions: Compound concentration 1000.0 nM
[38] = target: T1, 5-hydroxytryptamine receptor 1A (Homo sapiens) (UniProt P08908); conditions: Compound concentration 10.0 uM
T1 sequence (whole entry): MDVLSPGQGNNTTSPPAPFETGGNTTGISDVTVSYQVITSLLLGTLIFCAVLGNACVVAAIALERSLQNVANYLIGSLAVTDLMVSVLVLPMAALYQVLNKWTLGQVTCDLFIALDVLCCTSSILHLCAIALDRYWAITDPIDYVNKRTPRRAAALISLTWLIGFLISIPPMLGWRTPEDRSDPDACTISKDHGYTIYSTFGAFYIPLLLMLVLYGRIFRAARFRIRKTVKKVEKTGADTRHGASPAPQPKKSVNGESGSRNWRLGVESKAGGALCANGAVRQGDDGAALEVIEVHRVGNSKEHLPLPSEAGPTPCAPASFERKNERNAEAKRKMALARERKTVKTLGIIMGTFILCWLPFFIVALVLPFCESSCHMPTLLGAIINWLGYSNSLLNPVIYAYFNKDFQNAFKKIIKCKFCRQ

[39] = target: D(1B) dopamine receptor (Homo sapiens, UniProt P21918); conditions: Compound concentration 10.0 uM

Row | Structure (SMILES) | inhibition [1] [%] | residual activity [2] [%] | residual activity [3] [%] | residual activity [4] [%] | residual activity [5] [%] | inhibition [6] [%] | residual activity [7] [%] | residual activity [8] [%] | residual activity [9] [%] | residual activity [10] [%] | residual activity [11] [%] | residual activity [12] [%] | residual activity [13] [%] | residual activity [14] [%] | residual activity [15] [%] | residual activity [16] [%] | residual activity [17] [%] | residual activity [18] [%] | inhibition [19] [%] | residual activity [20] [%] | further results
1 | Cc1c(C(=O)O)cc(-c2ccc(C3CCNCC3)cc2)c2ccc(-c3ccc(C(F)(F)F)cc3)cc12 [PPTN-NC] | 57.5 | 100 | 100 | 100 | 100 | -5.54 | 100 | 100 | 100 | 85 | 100 | 100 | 100 | 100 | 100 | 100 | 100 | 93 | 12.6 | 100 | residual activity [21]: 100%; residual activity [22]: 100%; residual activity [23]: 100%; residual activity [24]: 100%; residual activity [25]: 100%; residual activity [26]: 94%; residual activity [27]: 88%; residual activity [28]: 100%; residual activity [29]: 100%; residual activity [30]: 97%; residual activity [31]: 100%; residual activity [32]: 90%; residual activity [33]: 100%; residual activity [34]: 100%; residual activity [35]: 100%; residual activity [36]: 100%; residual activity [37]: 100%; inhibition [38]: 1.01%; inhibition [39]: 58.1%
2 | O=C(O)c1cc(-c2ccc(C3CCNCC3)cc2)c2ccc(-c3ccc(C(F)(F)F)cc3)cc2c1 [PPTN] | 65.2 | 100 | 100 | 100 | 100 | -4.96 | 100 | 100 | 100 | 100 | 100 | 100 | 100 | 100 | 100 | 100 | 100 | 100 | 19.3 | 100 | residual activity [21]: 100%; residual activity [22]: 100%; residual activity [23]: 100%; residual activity [24]: 100%; residual activity [25]: 100%; residual activity [26]: 96%; residual activity [27]: 51%; residual activity [28]: 99%; residual activity [29]: 100%; residual activity [30]: 100%; residual activity [31]: 100%; residual activity [32]: 96%; residual activity [33]: 100%; residual activity [34]: 100%; residual activity [35]: 100%; residual activity [36]: 100%; residual activity [37]: 100%; inhibition [38]: 11.2%; inhibition [39]: 73.7%
